Consider 41 molecules from patent US10499641B2 (priority 2010, dated 2019).

One experiment relates to Plasmopara viticola. In words: Plasmopara test (grapevine)/protective. The following applies: young grapevine plants, sprayed, active ingredient concentration 10 ppm, evaluation 6 days after inoculation; 100% = no infection. It counts as in vivo. The protocol:
Plasmopara Test (Grapevine)/Protective
• Solvent: 24.5 parts by weight of acetone • 24.5 parts by weight of dimethylacetamide • Emulsifier: 1 part by weight of alkylaryl polyglycol ether
[To produce an appropriate active ingredient formulation, 1 part by weight of active ingredient is mixed with the specified amounts of solvent and emulsifier, and the concentrate is diluted with water to the desired concentration.
To test for protective efficacy, young plants are sprayed with the active ingredient formulation at the stated application rate. After the spray coating has dried on, the plants are inoculated with an aqueous spore suspension of Plasmopara viticola and then remain in an incubation cabin at approx. 20° C. and 100% relative air humidity for 1 day. Subsequently, the plants are placed in a greenhouse at approx. 21° C. and approx. 90% air humidity for 4 days. The plants are then moistened and placed in an incubation cabin for 1 day.
Evaluation follows 6 days after the inoculation. 0% means an efficacy which corresponds to that of the control, whereas an efficacy of 100% means that no infection is observed.
In this test, the following inventive compounds show, at an active ingredient concentration of 10 ppm, an efficacy of 70% or more: […]

The test system of another experiment is Phytophthora infestans. It counts as in vivo. Particulars: young tomato plants, sprayed, active ingredient concentration 100 ppm, inoculated 1 day after treatment, evaluation 7 days after inoculation; 100% = no infection.

SMILES strings stand for the structures.

For the molecule `CON=Cc1ccccc1C1CC(c2csc(C3CCN(C(=O)Cn4nc(C(F)F)cc4C(F)F)CC3)n2)=NO1` (stereo not shown) [Example I-26, 2-{3-[2-(1-{[3,5-Bis(difluoromethyl)-1H-pyrazol-1-yl]acetyl}piperidin-4-yl)-1,3-thiazol-4-yl]-4,5-dihydro-1,2-oxazol-5-yl}benzaldehyde O-methyloxime], the Eff. % in the experiment on Plasmopara viticola and with Phytophthora infestans was 100% throughout.
With `CC(=O)OCc1ccccc1C1CC(c2csc(C3CCN(C(=O)Cn4nc(C(F)(F)F)cc4C)CC3)n2)=NO1` (stereo not shown) [Example I-47], the results for the Eff. % in the experiment with Plasmopara viticola and in the experiment on Phytophthora infestans were 90% and 94%, respectively.
For `Cc1cc(C(F)(F)F)nn1CC(=O)N1CCC(c2nc(C3=NOC(c4cccc(C=NO)c4)C3)cs2)CC1` (mixture of isomers) [Example I-10], in that order: 92% and 100%.
For `O=C(Cn1nc(C(F)F)cc1C(F)F)N1CCC(c2nc(C3=NOC(c4ccccc4OS(=O)(=O)C4CC4)C3)cs2)CC1` (stereo not shown) [Example I-64], in that order: 100% and 100%.
For `CON=Cc1cccc(C2CC(c3csc(C4CCN(C(=O)Cn5nc(C(F)(F)F)cc5C)CC4)n3)=NO2)c1` (mixture of isomers) [Example I-15], in that order: 81% and 100%.
In the case of `Cc1cc(C(F)(F)F)nn1CC(=O)N1CCC(c2nc(C3=NOC(c4c(Cl)cccc4OS(C)(=O)=O)C3)cs2)CC1` (stereo not shown) [Example I-103], the results for the Eff. % in the experiment on Plasmopara viticola and in the experiment with Phytophthora infestans were 100% and 80%, respectively.
Take `CCS(=O)(=O)Oc1cccc(C2CC(c3csc(C4CCN(C(=O)Cn5nc(C(F)F)cc5C(F)F)CC4)n3)=NO2)c1` (stereo not shown) [Example I-77]: the Eff. % with Plasmopara viticola is 93%; with Phytophthora infestans, 98%.
For `CC(=NO)c1cccc(C2CC(c3csc(C4CCN(C(=O)Cn5nc(C(F)(F)F)cc5C)CC4)n3)=NO2)c1` (stereo not shown) [Example I-7], in that order: 100% and 100%.
For `CN(C)C(=S)c1ccccc1C1CC(c2csc(C3CCN(C(=O)Cn4nc(C(F)F)cc4C(F)F)CC3)n2)=NO1` (stereo not shown) [Example I-127], in that order: 96% and 97%.
For `O=CNc1ccccc1C1CC(c2csc(C3CCN(C(=O)Cc4cc(C(F)F)ccc4C(F)F)CC3)n2)=NO1` (stereo not shown) [Example I-123], in that order: 73% and 100%.
Consider `C[Si](C)(C)C#Cc1ccccc1C1CC(c2csc(C3CCN(C(=O)Cn4nc(C(F)F)cc4C(F)F)CC3)n2)=NO1` (stereo not shown) [Example I-133], for which the figures for the Eff. % in the experiment with Plasmopara viticola and with Phytophthora infestans were 85% and 100%, respectively.
For `N#CCOc1ccc(C2CC(c3csc(C4CCN(C(=O)Cn5nc(C(F)F)cc5C(F)F)CC4)n3)=NO2)cc1` (stereo not shown) [Example I-81], the Eff. % with Plasmopara viticola was determined as 99%; in the experiment on Phytophthora infestans it was 100%.
Consider `CCON=Cc1ccccc1C1CC(c2csc(C3CCN(C(=O)Cn4nc(C(F)(F)F)cc4C)CC3)n2)=NO1` (stereo not shown) [Example I-29], for which the Eff. % in the experiment on Plasmopara viticola turned out to be 90%; in the experiment with Phytophthora infestans it was 100%.
Take `N#CCOc1cccc(F)c1C1CC(c2csc(C3CCN(C(=O)Cn4nc(C(F)F)cc4C(F)F)CC3)n2)=NO1` (stereo not shown) [Example I-113]: the Eff. % in the experiment on Plasmopara viticola came to 100%; in the experiment with Phytophthora infestans, 85%.
For `CSCOc1ccccc1C1CC(c2csc(C3CCN(C(=O)Cn4nc(C(F)(F)F)cc4C)CC3)n2)=NO1` (stereo not shown) [Example I-120], in that order: 95% and 89%.
As for `Cc1ccc(C)c(NC(=O)N2CCC(c3nc(C4=NOC(c5ccccc5OS(C)(=O)=O)C4)cs3)CC2)c1` (stereo not shown) [Example I-74], the Eff. % in the experiment on Plasmopara viticola and with Phytophthora infestans was 100% throughout.
Consider `O=C(Cn1nc(C(F)F)cc1C(F)F)N1CCC(c2nc(C3=NOC(c4ccccc4OS(=O)(=O)C(F)(F)F)C3)cs2)CC1` (stereo not shown) [Example I-115], for which the values for the Eff. % in the experiment with Plasmopara viticola and in the experiment on Phytophthora infestans were 100% and 88%, respectively.
Take `Cc1cc(C(F)(F)F)nn1CC(=O)N1CCC(c2nc(C3=NOC(c4ccccc4OS(=O)(=O)C(F)(F)F)C3)cs2)CC1` (stereo not shown) [Example I-125]: the Eff. % with Plasmopara viticola is listed as 100%; in the experiment on Phytophthora infestans, 89%.
For `CON=Cc1ccccc1C1CC(c2csc(C3CCN(C(=O)Nc4cc(Cl)ccc4C)CC3)n2)=NO1` (stereo not shown) [Example I-41, N-(5-Chloro-2-methylphenyl)-4-[4-(5-{2-[(methoxyimino)methyl]phenyl}-4,5-dihydro-1,2-oxazol-3-yl)-1,3-thiazol-2-yl]piperidine-1-carboxamide], in that order: 81% and 100%.
For `N#CCCn1cccc1C1CC(c2csc(C3CCN(C(=O)Cn4nc(C(F)F)cc4C(F)F)CC3)n2)=NO1` (stereo not shown) [Example I-87], in that order: 95% and 80%.
For `O=C(Cn1nc(C(F)F)cc1C(F)F)N1CCC(c2nc(C3=NOC(c4cc(F)ccc4OS(=O)(=O)C4CC4)C3)cs2)CC1` (stereo not shown) [Example I-84], in that order: 100% and 90%.
As to `CCON=Cc1ccccc1C1CC(c2csc(C3CCN(C(=O)Cn4nc(C(F)F)cc4C(F)F)CC3)n2)=NO1` (mixture of isomers) [Example I-27], the Eff. % with Plasmopara viticola stood at 99%; in the experiment with Phytophthora infestans, 100%.
In the case of `CS(=O)(=O)Oc1c(F)cccc1C1CC(c2csc(C3CCN(C(=O)Cn4nc(C(F)F)cc4C(F)F)CC3)n2)=NO1` (stereo not shown) [Example I-85], the Eff. % was 100% with Plasmopara viticola and 75% in the experiment on Phytophthora infestans.
For `N#CCOc1ccccc1C1CC(c2csc(C3CCN(C(=O)Cn4nc(C(F)F)cc4C(F)F)CC3)n2)=NO1` (stereo not shown) [Example I-63], in that order: 100% and 94%.
For `Cc1ccc(Cl)cc1NC(=O)N1CCC(c2nc(C3=NOC(c4ccccc4C=NO)C3)cs2)CC1` (mixture of isomers) [Example I-36], in that order: 100% and 100%.
For `CON=C(C)c1cccc(C2CC(c3csc(C4CCN(C(=O)Cn5nc(C(F)F)cc5C(F)F)CC4)n3)=NO2)c1` (mixture of isomers) [Example I-21], in that order: 100% and 100%.
`C#CCOCc1ccccc1C1CC(c2csc(C3CCN(C(=O)Cn4nc(C(F)F)cc4C(F)F)CC3)n2)=NO1` (stereo not shown) [Example I-53]: the figures for the Eff. % with Plasmopara viticola and with Phytophthora infestans were 96% and 94%, respectively.
For `O=CNc1ccccc1C1CC(c2csc(C3CCN(C(=O)Nc4cc(C(F)F)ccc4C(F)F)CC3)n2)=NO1` (stereo not shown) [Example I-122], the Eff. % turned out to be 89% in the experiment with Plasmopara viticola and 97% in the experiment on Phytophthora infestans.
Consider `C#CCOCc1ccccc1C1CC(c2csc(C3CCN(C(=O)Cn4nc(C(F)F)cc4C(F)F)CC3)n2)=NO1` (stereo not shown) [Example I-138], for which the Eff. % is 98% in the experiment on Plasmopara viticola and 93% in the experiment with Phytophthora infestans.
For `Cc1cc(C(F)F)nn1CC(=O)N1CCC(c2nc(C3=NOC(c4ccccc4OCC#N)C3)cs2)CC1` (stereo not shown) [Example I-76], in that order: 93% and 100%.
For `CC(=O)OCc1ccccc1C1CC(c2csc(C3CCN(C(=O)Cn4nc(C(F)F)cc4C(F)F)CC3)n2)=NO1` (stereo not shown) [Example I-55], in that order: 92% and 94%.
For `COC(=O)COc1ccc(C2CC(c3csc(C4CCN(C(=O)Cn5nc(C(F)F)cc5C(F)F)CC4)n3)=NO2)cc1` (stereo not shown) [Example I-128], in that order: 93% and 90%.
Turning to `CCON=C(C)c1cccc(C2CC(c3csc(C4CCN(C(=O)Cn5nc(C(F)F)cc5C(F)F)CC4)n3)=NO2)c1` (mixture of isomers) [Example I-5], the Eff. % in the experiment with Plasmopara viticola turned out to be 87%; with Phytophthora infestans, 100%.
For `O=CNc1ccccc1C1CC(c2csc(C3CCN(C(=O)Cn4nc(C(F)F)cc4C(F)F)CC3)n2)=NO1` (stereo not shown) [Example I-108], in that order: 93% and 100%.
For `Cc1ccc(Cl)cc1NC(=O)N1CCC(c2nc(C3=NOC(c4c(Cl)cccc4OS(C)(=O)=O)C3)cs2)CC1` (stereo not shown) [Example I-54], in that order: 100% and 94%.
As for `O=C(Oc1ccccc1C1CC(c2csc(C3CCN(C(=O)Cn4nc(C(F)F)cc4C(F)F)CC3)n2)=NO1)c1cccc(F)c1` (stereo not shown) [Example I-129], the Eff. % with Plasmopara viticola and in the experiment with Phytophthora infestans was 98% each time.
As for `CCS(=O)(=O)Oc1ccccc1C1CC(c2csc(C3CCN(C(=O)Cn4nc(C(F)(F)F)cc4C)CC3)n2)=NO1` (stereo not shown) [Example I-119], the Eff. % with Plasmopara viticola was found to be 100%; with Phytophthora infestans, 89%.
Take `CON=C(C)c1ccccc1C1CC(c2csc(C3CCN(C(=O)Cn4nc(C(F)F)cc4C(F)F)CC3)n2)=NO1` (mixture of isomers) [Example I-32]: the figures for the Eff. % in the experiment with Plasmopara viticola and in the experiment on Phytophthora infestans were 85% and 100%, respectively.
For `C#CCN(C=O)c1ccccc1C1CC(c2csc(C3CCN(C(=O)Cn4nc(C(F)F)cc4C(F)F)CC3)n2)=NO1` (stereo not shown) [Example I-117], in that order: 96% and 79%.
With `CON=Cc1cccc(F)c1C1CC(c2csc(C3CCN(C(=O)Cn4nc(C(F)(F)F)cc4C)CC3)n2)=NO1` (stereo not shown) [Example I-118], the values for the Eff. % with Plasmopara viticola and in the experiment with Phytophthora infestans were 100% and 95%, respectively.
For `Cc1cc(C(F)(F)F)nn1CC(=O)N1CCC(c2nc(C3=NOC(c4c(F)cccc4OCC#N)C3)cs2)CC1` (stereo not shown) [Example I-86], in that order: 99% and 75%.
